Assay results taken from PubChem BioAssay AID330 (DTP/NCI, 2004).
Where “and” joins values, the source holds several entries; their conditions need not be identical. Equal values may be shown once. Inconclusive results and toxic doses are left out. How the source made its calls: active means survival T/C of 150% or more; inactive means T/C below 125% in these data.

Test system: P388 leukemia ip, CD2F1 mice, survival T/C
Experiment: NCI In Vivo Anticancer Drug Screen. Data for tumor model P388 Leukemia (intraperitoneal) in CD2F1 (CDF1) mice
Conditions: endpoint: median survival time, higher = longer survival
Summary of the method: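 Mice carrying the transplanted tumor received test compound or vehicle. Survival was recorded in each group, and the value is the treated-group measurement divided by that of the vehicle-treated control group.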

[1] = dose: 50.0 mg/kg/injection, schedule: Q01DX005 (ip), vehicle: Klucel (hydroxypropylcellulose) (HPC)
[2] = dose: 100.0 mg/kg/injection, schedule: Q01DX005 (ip), vehicle: Klucel (hydroxypropylcellulose) (HPC)
[3] = dose: 100.0 mg/kg/injection, schedule: Q04DX003 (ip), vehicle: Klucel (hydroxypropylcellulose) (HPC)
[4] = dose: 200.0 mg/kg/injection, schedule: Q04DX003 (ip), vehicle: Klucel (hydroxypropylcellulose) (HPC)
[5] = dose: 100.0 mg/kg/injection, schedule: Q04DX003 (ip), vehicle: saline with Tween-80
[6] = dose: 200.0 mg/kg/injection, schedule: Q04DX003 (ip), vehicle: saline with Tween-80
[7] = dose: 400.0 mg/kg/injection, schedule: Q04DX003 (ip), vehicle: saline with Tween-80
[8] = dose: 200.0 mg/kg/injection, schedule: Q01DX005 (ip), vehicle: Klucel (hydroxypropylcellulose) (HPC)
[9] = dose: 50.0 mg/kg/injection, schedule: Q01DX009 (ip), vehicle: Klucel (hydroxypropylcellulose) (HPC)
[10] = dose: 100.0 mg/kg/injection, schedule: Q01DX009 (ip), vehicle: Klucel (hydroxypropylcellulose) (HPC)
[11] = dose: 200.0 mg/kg/injection, schedule: Q01DX009 (ip), vehicle: Klucel (hydroxypropylcellulose) (HPC)
[12] = dose: 100.0 mg/kg/injection, schedule: Q01DX001 (ip), vehicle: saline with Tween-80
[13] = dose: 200.0 mg/kg/injection, schedule: Q01DX001 (ip), vehicle: saline with Tween-80

Measured: T/C

CCC(CC)OCCN1CCN(CCCN2c3ccccc3Sc3ccc(C(F)(F)F)cc32)CC1
inactive: dose: 0.75 mg/kg/injection, schedule: Q01DX009 (ip), vehicle: saline with Tween-80 110 % of control | dose: 1.5 mg/kg/injection, schedule: Q01DX009 (ip), vehicle: saline with Tween-80 94 % of control | dose: 2.5 mg/kg/injection, schedule: Q04DX003 (ip), vehicle: saline 110 % of control and 93 % of control | dose: 3.0 mg/kg/injection, schedule: Q01DX009 (ip), vehicle: saline with Tween-80 99 % of control | dose: 5.0 mg/kg/injection, schedule: Q04DX003 (ip), vehicle: saline 101 % of control and 97 % of control | dose: 6.0 mg/kg/injection, schedule: Q01DX009 (ip), vehicle: saline with Tween-80 100 % of control | dose: 10.0 mg/kg/injection, schedule: Q04DX003 (ip), vehicle: saline with Tween-80 99 % of control and 122 % of control | dose: 10.0 mg/kg/injection, schedule: Q04DX003 (ip), vehicle: saline 109 % of control and 96 % of control | dose: 12.0 mg/kg/injection, schedule: Q01DX009 (ip), vehicle: saline with Tween-80 110 % of control | dose: 20.0 mg/kg/injection, schedule: Q04DX003 (ip), vehicle: saline with Tween-80 109 % of control and 119 % of control | dose: 20.0 mg/kg/injection, schedule: Q04DX003 (ip), vehicle: saline 113 % of control and 98 % of control

CC1=Nc2c(C)noc2CC(c2ccccc2O)C1 (configuration not stated)
inactive: [1] 101 % of control | [2] 106 % of control

CCCOc1cc2c(cc1C(C)c1ccccc1)OCO2 (configuration not stated)
inactive: dose: 50.0 mg/kg/injection, schedule: Q01DX005 (ip), vehicle: saline with Tween-80 101 % of control | dose: 100.0 mg/kg/injection, schedule: Q01DX005 (ip), vehicle: saline with Tween-80 95 % of control | dose: 200.0 mg/kg/injection, schedule: Q01DX005 (ip), vehicle: saline with Tween-80 96 % of control

Cc1ccc2c(c1)-c1[nH]c3ccccc3c1CS2
inactive: [3] 104 % of control | [4] 115 % of control

C=C1C(=O)OC2CCCC(O)C12 (configuration not stated)
inactive: dose: 50.0 mg/kg/injection, schedule: Q04DX003 (ip), vehicle: Klucel (hydroxypropylcellulose) (HPC) 106 % of control and 96 % of control | [3] 104 % of control | [4] 115 % of control

CCCCCCCCCCCCCCCCCCCC[N+]1(CC)CCOCC1
inactive: [5] 98 % of control | [6] 99 % of control | [7] 96 % of control

O=C1C(=C(C(F)(F)F)C(F)(F)F)C2CCC1C2 (configuration not stated)
inactive: dose: 3.13 mg/kg/injection, schedule: Q01DX009 (ip), vehicle: saline with Tween-80 100 % of control | dose: 6.25 mg/kg/injection, schedule: Q01DX009 (ip), vehicle: saline with Tween-80 110 % of control | dose: 12.5 mg/kg/injection, schedule: Q01DX009 (ip), vehicle: saline with Tween-80 100 % of control

O=[N+]([O-])c1ccc(Sc2nc3ccccc3[nH]2)c(Cl)c1
inactive: [1] 99 % of control | [2] 100 % of control | [8] 117 % of control

CN(C)C(C#C[Si](C)(C)C)C1(O)CCCCC1 (configuration not stated)
inactive: dose: 100.0 mg/kg/injection, schedule: Q04DX003 (ip), vehicle: saline 103 % of control | dose: 200.0 mg/kg/injection, schedule: Q04DX003 (ip), vehicle: saline 105 % of control | dose: 400.0 mg/kg/injection, schedule: Q04DX003 (ip), vehicle: saline 103 % of control

CCOC(=O)c1ccc(NC(=O)c2cccc(Cl)c2)cc1
inactive: [9] 104 % of control | [10] 100 % of control | [11] 98 % of control

CC(=O)C1=CN(C)c2ccccc2S1
inactive: [1] 103 % of control | [2] 99 % of control | [8] 108 % of control

CCN(CC)CCNC(=O)c1nn(C)c(=S)[nH]c1=O
inactive: dose: 100.0 mg/kg/injection, schedule: Q04DX002 (ip), vehicle: Klucel (hydroxypropylcellulose) (HPC) 93 % of control | dose: 200.0 mg/kg/injection, schedule: Q04DX002 (ip), vehicle: Klucel (hydroxypropylcellulose) (HPC) 93 % of control | dose: 400.0 mg/kg/injection, schedule: Q04DX002 (ip), vehicle: Klucel (hydroxypropylcellulose) (HPC) 101 % of control

Cc1nc(Nc2ccc(F)cc2)c2c(C)c[nH]c2n1
inactive: [1] 90 % of control | [2] 88 % of control | [8] 89 % of control

CC(C(O)CO)n1cnc2c(NCC(O)CO)ncnc21 (configuration not stated)
inactive: [12] 101 % of control | [13] 107 % of control | dose: 400.0 mg/kg/injection, schedule: Q01DX001 (ip), vehicle: saline with Tween-80 100 % of control

CNS(=O)(=O)c1cc([N+](=O)[O-])c(N2CCCCC2)c([N+](=O)[O-])c1
inactive: [9] 100 % of control | [10] 100 % of control | [11] 99 % of control

O=S(=O)(Nc1cccc(NS(=O)(=O)c2ccccc2)n1)c1ccccc1
inactive: dose: 50.0 mg/kg/injection, schedule: Q01DX001 (ip), vehicle: saline with Tween-80 91 % of control | [12] 91 % of control | [13] 91 % of control

CCCCCCCCCCCCC(C(=O)O)C(C)C(=O)O (configuration not stated)
inactive: dose: 0.25 mg/kg/injection, schedule: Q01DX009 (ip), vehicle: saline with Tween-80 96 % of control | dose: 0.5 mg/kg/injection, schedule: Q01DX009 (ip), vehicle: saline with Tween-80 102 % of control | dose: 1.0 mg/kg/injection, schedule: Q01DX009 (ip), vehicle: saline with Tween-80 104 % of control

CCCCCCCCCCOC(=O)c1ccc(O)cc1
inactive: dose: 50.0 mg/kg/injection, schedule: Q01DX009 (ip), vehicle: saline with Tween-80 97 % of control | dose: 100.0 mg/kg/injection, schedule: Q01DX009 (ip), vehicle: saline with Tween-80 102 % of control | dose: 200.0 mg/kg/injection, schedule: Q01DX009 (ip), vehicle: saline with Tween-80 97 % of control

COc1ccc2[nH]c(-c3ccccc3)cc2c1
inactive: [5] 105 % of control | [6] 110 % of control | [7] 100 % of control

COC(=O)c1[nH]cnc1O
inactive: dose: 50.0 mg/kg/injection, schedule: Q01DX005 (ip), vehicle: water 103 % of control | dose: 100.0 mg/kg/injection, schedule: Q01DX005 (ip), vehicle: water 113 % of control | dose: 200.0 mg/kg/injection, schedule: Q01DX005 (ip), vehicle: water 103 % of control

CC(CC1(c2ccccc2)C(=O)NC(=O)NC1=O)OC(=O)c1ccc([N+](=O)[O-])cc1 (configuration not stated)
inactive: [9] 103 % of control | [10] 100 % of control | [11] 99 % of control

FC(F)(F)C(F)(F)C(F)(F)C(F)(F)C(F)(F)C(F)(F)C[CH2][Sn]([Cl])([Cl])[CH2]CC(F)(F)C(F)(F)C(F)(F)C(F)(F)C(F)(F)C(F)(F)F
inactive: dose: 60.0 mg/kg/injection, schedule: Q01DX005 (ip), vehicle: saline with Tween-80 118 % of control | dose: 120.0 mg/kg/injection, schedule: Q01DX005 (ip), vehicle: saline with Tween-80 119 % of control

CCCCCCCCCC(=O)Oc1cccc2c1CC(C[Se]c1ccccc1)C(=O)O2 (configuration not stated)
inactive: dose: 1.88 mg/kg/injection, schedule: Q01DX005 (ip), vehicle: saline with Tween-80 97 % of control | dose: 3.75 mg/kg/injection, schedule: Q01DX005 (ip), vehicle: saline with Tween-80 101 % of control | dose: 7.5 mg/kg/injection, schedule: Q01DX005 (ip), vehicle: saline with Tween-80 89 % of control and 91 % of control

CCOc1c(N=Nc2ccc(Cl)cc2)c(C)nn1C(=S)SC
inactive: dose: 7.5 mg/kg/injection, schedule: Q01DX005 (ip), vehicle: Klucel + Tween-80 92 % of control | dose: 15.0 mg/kg/injection, schedule: Q01DX005 (ip), vehicle: Klucel + Tween-80 86 % of control | dose: 30.0 mg/kg/injection, schedule: Q01DX005 (ip), vehicle: Klucel + Tween-80 86 % of control | dose: 60.0 mg/kg/injection, schedule: Q01DX005 (ip), vehicle: Klucel + Tween-80 94 % of control
